In series [1] the test system is CRT KO mice. Put plainly: Morris Water Maze test. The series is classed as in vivo. An excerpt:
Regarding FIG. 3, CRT brain-specific knockout male mice (CRT′ or CRT KO mice) and their control littermates (CrTf1″5″) were generated by the methods known in the art (e.g., by using the Cre-lox system and homologous recombination as described in Sauer B., Methods, 1998, 14, 381-392; the strategy for targeting the gene deletion to the brain region was based on the data described in Casanova E. et al., Genesis 2001, 31, 37-42). […] A total 29 CRT KO male mice (CRT^/y) and 28 control male mice (CRT^flox/y) at 12 months of age were used in the cyclocreatine supplementation study. The mice were randomly assigned to one of three groups that were started on one of three treatments for 9 weeks: 1) cyclocreatine (C-Cr, CRT KO=7, control=5), 2) creatine (Cr, CRT KO=5, control=5), and 3) maltodextrine as placebo (P, CRT KO=5, control=5). […] Spatial learning and memory in the CRT KO mice and their control littermates before and after 9-week cyclocreatine supplementation was measured by the Morris Water Maze test, a procedure routinely used in behavioral neuroscience to study spatial learning and memory. […] The mouse swims around the pool in search of an exit while various parameters are recorded, e.g., the time spent in each quadrant of the pool and the time taken to reach the platform (latency). […] Data is expressed as mean±SE, *P≦0.05.

Series [2] deals with CRT KO mice. The series is described as follows: Novel Object Recognition test. The series is classed as in vivo. As to conditions: before and after 9-week supplementation, 0.286 mg/g body weight/day. An excerpt: Regarding FIG. 3, CRT brain-specific knockout male mice (CRT′ or CRT KO mice) and their control littermates (CrTf1″5″) were generated by the methods known in the art (e.g., by using the Cre-lox system and homologous recombination as described in Sauer B., Methods, 1998, 14, 381-392; the strategy for targeting the gene deletion to the brain region was based on the data described in Casanova E. et al., Genesis 2001, 31, 37-42). […] A total 29 CRT KO male mice (CRT^/y) and 28 control male mice (CRT^flox/y) at 12 months of age were used in the cyclocreatine supplementation study. The mice were randomly assigned to one of three groups that were started on one of three treatments for 9 weeks: 1) cyclocreatine (C-Cr, CRT KO=7, control=5), 2) creatine (Cr, CRT KO=5, control=5), and 3) maltodextrine as placebo (P, CRT KO=5, control=5). Each treatment drug was supplied in the drinking water and the concentration was adjusted to 0.286 mg/g body weight/day, corresponding to the standard dose of creatine for human subjects (20 g/70 kg body weight/day). Short-term memory of CRT KO mice and their control littermates before and after 9-week cyclocreatine supplementation was measured using the Novel Object Recognition test that is routinely used in the art for evaluation of cognition in rodent models of the disorders of the central nervous system. […]

The subject of series [3] is CRT KO mice. Put plainly: Levels of cyclocreatine in the brain after supplementation. The format is in vivo. As to conditions: 9 weeks supplementation in drinking water, 0.286 mg/g body weight/day. From the text: Regarding FIG. 3, CRT brain-specific knockout male mice (CRT′ or CRT KO mice) and their control littermates (CrTf1″5″) were generated by the methods known in the art (e.g., by using the Cre-lox system and homologous recombination as described in Sauer B., Methods, 1998, 14, 381-392; the strategy for targeting the gene deletion to the brain region was based on the data described in Casanova E. et al., Genesis 2001, 31, 37-42). […] A total 29 CRT KO male mice (CRT^/y) and 28 control male mice (CRT^flox/y) at 12 months of age were used in the cyclocreatine supplementation study. The mice were randomly assigned to one of three groups that were started on one of three treatments for 9 weeks: 1) cyclocreatine (C-Cr, CRT KO=7, control=5), 2) creatine (Cr, CRT KO=5, control=5), and 3) maltodextrine as placebo (P, CRT KO=5, control=5). […] Levels of cyclocreatine and creatine in the organs of CRT KO mice and their control littermates before cyclocreatine supplementation were measured by the methods known in the art (e.g., creatine content was measured as described in Conn R., Clin. Chem., 1960, 6, 537-548; and cyclocreatine content was measured as described in Griffith G. R., J Biol. Chem. 1976, 251(7), 2049-2054). […] Data is expressed as mean±SE. §P≦0.0001, §§P<0.00001.

Series [4] relates to CRT KO mice. The series is described as follows: Phosphorylated metabolites in the brain by in vivo magnetic resonance spectroscopy. As to conditions: after 9 weeks supplementation, in vivo MRS. An excerpt: Regarding FIG. 3, CRT brain-specific knockout male mice (CRT′ or CRT KO mice) and their control littermates (CrTf1″5″) were generated by the methods known in the art (e.g., by using the Cre-lox system and homologous recombination as described in Sauer B., Methods, 1998, 14, 381-392; the strategy for targeting the gene deletion to the brain region was based on the data described in Casanova E. et al., Genesis 2001, 31, 37-42). […] A total 29 CRT KO male mice (CRT^/y) and 28 control male mice (CRT^flox/y) at 12 months of age were used in the cyclocreatine supplementation study. The mice were randomly assigned to one of three groups that were started on one of three treatments for 9 weeks: 1) cyclocreatine (C-Cr, CRT KO=7, control=5), 2) creatine (Cr, CRT KO=5, control=5), and 3) maltodextrine as placebo (P, CRT KO=5, control=5). Each treatment drug was supplied in the drinking water and the concentration was adjusted to 0.286 mg/g body weight/day, corresponding to the standard dose of creatine for human subjects (20 g/70 kg body weight/day). The levels of phosphorylated metabolites in the brains of the CRT KO and their control littermates were measured by in vivo magnetic resonance spectroscopy using the procedures well known in the art. […] Data is expressed as mean±SE,*P≦0.05, **P≦0.01.

Series [5] relates to person with X-linked creatine transporter deficiency (CTD). The series is described as follows: Creatine treatment of a child with X-linked creatine transporter deficiency. The format is in vivo, human. As to conditions: increasing doses to 750 mg/kg/day, discontinued after 6 months. An excerpt:
This example illustrates that administration of creatine to a person with X-linked creatine transporter deficiency (CTD) fails to increase brain creatine or to ameliorate clinical symptoms associated with decreased brain levels of creatine. […] Several female family members were identified as heterozygote carriers of this disorder, and appear to have decreased Cr. The child had severe expressive dysphasia with other cognitive functions less affected. […] In the absence of demonstrable benefit, the creatine treatment was discontinued after 6 months.

A further series has as its target T1, creatine transporter (Homo sapiens, UniProt P48029).
T1 construct: endogenous in cells; host or cells: normal human monocytes and macrophages
T1 sequence (P48029 1-635): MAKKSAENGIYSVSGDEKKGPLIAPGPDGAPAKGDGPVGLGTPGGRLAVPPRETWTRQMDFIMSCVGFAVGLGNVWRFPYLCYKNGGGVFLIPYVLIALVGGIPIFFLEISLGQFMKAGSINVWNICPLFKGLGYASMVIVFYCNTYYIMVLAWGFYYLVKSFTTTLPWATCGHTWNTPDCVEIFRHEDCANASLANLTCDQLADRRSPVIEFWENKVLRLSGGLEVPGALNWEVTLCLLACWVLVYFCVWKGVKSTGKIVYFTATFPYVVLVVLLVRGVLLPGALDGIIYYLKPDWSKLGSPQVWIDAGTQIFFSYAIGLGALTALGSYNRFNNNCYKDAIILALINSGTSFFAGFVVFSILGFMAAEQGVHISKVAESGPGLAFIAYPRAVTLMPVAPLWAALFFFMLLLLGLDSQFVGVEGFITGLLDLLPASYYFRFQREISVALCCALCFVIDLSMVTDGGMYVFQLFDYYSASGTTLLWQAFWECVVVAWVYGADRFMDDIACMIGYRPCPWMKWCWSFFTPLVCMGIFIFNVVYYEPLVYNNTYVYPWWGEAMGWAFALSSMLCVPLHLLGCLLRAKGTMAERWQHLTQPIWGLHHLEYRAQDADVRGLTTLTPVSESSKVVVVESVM
To be noted: normal human monocytes and macrophages; read-out: Km of creatine transport; cited from earlier work.

Take `NC1=NCCN1CC(=O)O` [cyclocreatine]: the “spatial learning and memory” value in the series with CRT KO mice [1] (before and after 9-week supplementation) is “improves spatial learning and memory”. The “latency in finding hidden platforms” value with CRT KO mice [1] (versus placebo treated CRT KO mice) is given as “shorter latency”. In the series with CRT KO mice [2], the “short-term memory (discrimination index)” value is “normalizes the short-term memory”. In addition, the “levels of cyclocreatine in the brains” value in the series with CRT KO mice [3] is “increased”. Besides, the “levels of cyclocreatine and/or creatine phosphate in the brain (peak height ratio)” value in the series with CRT KO mice [4] is reported as “increases the levels of cyclocreatine and/or creatine phosphate”.

For the compound `CN(CC(=O)O)C(=N)N` [creatine], the “short-term memory (discrimination index)” value in the series on CRT KO mice [2] was “no significant changes”. For the same compound, the “clinical or spectroscopic (1H MRS) improvement” value in series [5] is “without clinical or spectroscopic (^1H MRS) improvement”. In addition, the Km at creatine transporter is roughly 30 µM.

The record behind these values is patent US9233099B2, “Methods of treating cognitive dysfunction by modulating brain energy metabolism” (University of Cincinnati, priority 2012, dated 2016).
